For 64 compounds, melting point results are on record in a melting point compilation (Tetko et al.; mined from patent text by program, amines drawn as free bases though some values may be those of a salt).

One may read the melting point as the temperature of the solid-liquid transition. The compound `CCCCC(=O)NCCc1c(OC)ccc2ccccc12` registered a melting point of 69 to 75 °C.
Compound `C=CCN(c1ccccc1)c1cc(C(N)=O)c(C(=O)O)cc1N(CC=C)c1ccccc1` registered a melting point of 114 to 116 °C.
`c1ccc(Cc2ccc3c(c2)nc2n3CCCS2)cc1`: the melting point lay within 145 to 147 °C.
In the case of `O=C(C1CCCC1)N1CCc2cc(S(=O)(=O)N3CCN(c4cccc(Cl)c4)CC3)ccc21`, the melting point was in the range of 166 to 167 °C.
Regarding `Cc1cccc(C)c1C(=O)Oc1cc([N+](=O)[O-])cc([N+](=O)[O-])c1OC(=O)c1c(C)cccc1C`, the melting point fell in the range of 175 to 178 °C.
In the case of `CCCn1c(=O)n([C@@H]2CCN(CCCCN3C(=O)c4cc(Cl)ccc4S3(=O)=O)[C@@H](C#N)C2)c2ccccc21` (relative stereo), the melting point was in the range of 159 to 160 °C.
The same measure for `Fc1ccc(Nc2ccnc3cc(Cl)ccc23)cc1`: 214 to 216 °C; for `Cc1ccc(C#N)c(N2CCc3ccccc3CC2)n1`: 78.5 to 80.7 °C; for `COc1cc(OC)nc(SCc2nc(C(F)(F)F)ccc2C(=O)O)n1`: 123 to 124 °C.
The same measure for `CCOC(=O)[C@@H]1CSC=CN1C(=O)[C@@H](Cc1ccccc1)N1C(=O)c2ccccc2C1=O` (relative stereo): 193 °C; for `Cn1ccnc1SCC(=O)Nc1ccc(-c2ccccc2)cc1`: 151 to 154 °C; for `CCC1(CC)C(=O)N(c2ccc(C#N)c(C(F)(F)F)c2)C(=S)N1C`: 126 to 127 °C.
The same measure for `COc1ccc(C(=O)NCCc2ccc(-c3ccc(OC(C)(C)C(=O)O)cc3)cc2)cc1`: 180 to 183 °C.
The compound `COC(=O)c1ccc(N2C(=O)c3ccccc3C2=O)cc1O` gave a melting point of 218 to 219 °C.
`O=c1c2cc(F)c(F)cc2n(CC2CC2)c(=O)n1OCc1ccccc1` displayed a melting point of 121 to 123 °C.
Turning to `O=C(O)CCSc1cccs1`, the melting point lay in the range of 110 to 112 °C.
The same measure for `CCCc1nc2c(N)nc(C)c(C)c2n1C1(OC)CCCCC1`: 192 to 193 °C; for `CCCCc1c(CNC(=O)OC(C)(C)C)c(CC(C)C)nc2ccc(O)cc12`: 198 to 200 °C.
`COc1ccc(C=O)cc1CS(=O)(=O)O`: the melting point was 54 °C.
`COc1cc2ccccc2cc1NC(=O)Nc1cccc2ccccc12` returned a melting point of 155 to 156 °C.
Turning to `CCOC(=O)C(NC=O)=C1CC2CCC(C1)N2C(=O)OCc1ccccc1`, the melting point was determined as 124 °C.
`CNC(=O)c1ccc(C=C2CC3CCC(C2)N3)cc1` registered a melting point of 164 to 166 °C.
As for `FC(F)(F)c1ccc(-c2cc(Oc3cccc4cnccc34)nnc2Oc2cccc3cnccc23)cc1`, the melting point was in the range of 197 to 199 °C.
For `CCOc1cccc(-c2cn(C)cc(-c3ccccc3)c2=O)c1`, the melting point is 133 to 135 °C.
The same measure for `COc1cc(C2(C)C(=O)Nc3ccccc3C2=O)ccc1O` (centres undefined): 168 to 169 °C; for `COc1cc(C(=O)O)c(-c2cc3cc(O)ccc3[nH]2)cc1OC`: 160 °C; for `CC1(C)CN=C(c2cnc(S(C)(=O)=O)c(Cl)c2)O1`: 102 to 105 °C.
Compound `COC(=O)[C@@H](OS(=O)(=O)c1ccc(C)cc1)[C@H](O)c1ccc(F)cc1` had a melting point of 122 to 124 °C.
On to `N#Cc1cccc(-c2nc(Nc3ccc(C(=O)O)cc3)sc2-c2ccnnc2)c1`, for which the melting point was above 275 °C.
The same measure for `CC(C)CN(C=NS(=O)(=O)c1c(Cl)nc2ccc(C3CC3)nn12)CC(C)C`: 154 to 160 °C; for `CN1CCC(O)(CNC=O)CC1`: 116 to 122 °C.
In turn, `CCCCCc1sc(C(=O)OCC)nc1-c1ccccc1` had a melting point of 51 to 52 °C.
`CCc1ccc(OCC2CO2)cc1` (centres undefined) had a melting point of 73.5 to 74.2 °C.
The same measure for `O=C(c1ccccc1)c1ccc(-c2ccc(CBr)cc2)cc1`: 110 to 112 °C; for `CNc1nc2ccncc2[nH]1`: 256 °C; for `FC(F)(F)Oc1ccc2nc(Cc3ccc4c(c3)CCCC4)[nH]c2c1`: 88 to 90 °C.
`CC=Cn1c(C)c(C)c2cnnc(OCc3ccc(F)cc3)c21` yielded a melting point of 114 to 115 °C.
In turn, `O=[N+]([O-])c1ccc(C2Nc3ccccc3-c3c([N+](=O)[O-])cnn32)cc1` (centres undefined) came in with a melting point of 190 to 191 °C.
Take `Cc1ccc(-c2csc(/C=C/C(=O)Nc3ccc(CN(C)C4CCOCC4)cc3)c2)cc1`: the melting point fell in the range of 188 to 190 °C.
The same measure for `Cc1ccc(C=NC2=NN(c3ccc4ccccc4c3)CC2)cc1`: 184 to 186 °C; for `CC1OC(N2CC(C)(I)C(=O)NC2=O)CC1O[Si](c1ccccc1)(c1ccccc1)C(C)(C)C` (centres undefined): 142 °C; for `CCCCC1=NC2(CCCC2)C(=O)N1Cc1ccc(-c2ccccc2S(=O)(=O)Nc2noc(C)c2C)c(CN2CCCC2=O)c1`: 97 to 103 °C.
Turning to `CCCC1Cc2cc(OCC(=O)O)c(Cl)c(Cl)c2C1=O` (centres undefined), the melting point fell in the range of 199 to 203 °C.
In turn, `NC1CCN(c2nc3c(cc2F)c(=O)c(C(=O)O)cn3C2CC2)C1` (centres undefined) showed a melting point of 266 to 267 °C.
Compound `CN1C2C=C(c3c[nH]c4ccc([N+](=O)[O-])cc34)CC1CC2` (centres undefined) yielded a melting point of 234 to 236 °C.
For `CCOn1nnnc1SC[PH](=O)O`, the melting point lay in the range of 120 to 122 °C.
With `O=Cc1c(NC(Cc2ccccc2)C(=O)O)ncnc1-c1ccc(OCc2ccccc2)cc1` (centres undefined), the melting point is above 300 °C.
`CC(=O)Oc1ccc(-c2c3ccccc3c(Br)c3sc(C)c(C)c23)cc1`: the melting point fell in the range of 190 to 191 °C.
The compound `CC(C)c1nc(Cl)c2c(-c3ccc([N+](=O)[O-])o3)nn(C)c2n1` gave a melting point of 112 °C.
Turning to `CC(C)c1ccc(C2c3cc(NC(=O)CC(C)(C)C)ccc3OC2(C)C)cc1` (centres undefined), the melting point is 126 to 127 °C.
With `CCn1cc(C(N)=O)c(=O)c2ccc(-c3ccccn3)cc21`, the melting point lay in the range of 245 to 246 °C.
Compound `O=c1[nH]nc2n1-c1ccccc1OC2` gave a melting point of 198 °C.
Consider `O=C(O)Cc1coc2cc(OCc3cc(-c4ccc(Cl)cc4)on3)ccc12`, for which the melting point lay within 193 to 194 °C.
As for `CC1Oc2cc(C3=NNC(=O)CC3)ccc2NC1=O` (centres undefined), the melting point lay within 294 to 295 °C.
`O=C(CCN1CCN(c2ccc3ccccc3n2)CC1)c1csc2ccccc12`: the melting point lay in the range of 92 to 96 °C.
Turning to `CCCCN(CCCC)c1cc(OC)c(C=O)c(OC)c1`, the melting point lay in the range of 55 to 56 °C.
On to `O=[N+]([O-])c1ccc(COP(=O)(COS(=O)(=O)C(F)(F)F)OCc2ccc([N+](=O)[O-])cc2)cc1`, for which the melting point was 73 to 75 °C.
With `COC(=O)c1cc2cc(C[C@@H](C)NC[C@H](O)c3cccc(Cl)c3)ccc2n1CC1CC1`, the melting point is 135 to 137 °C.
`CCCCc1nnc(-c2ccc(OC)cc2)n1-c1ccc(OC)cc1`: the melting point is 94 °C.
With `O=C(O)C1=CCN2C=CC=CC2=C1`, the melting point is 258 to 262 °C.
`CCOC(=S)N[C@@H](C)C(=O)O`: the melting point fell in the range of 74 to 78 °C.
The same measure for `c1ccc(C2CN=C3NCCN32)cc1` (centres undefined): 167 to 170 °C.
On to `CC(CCCc1ccc(F)cc1)c1cc(O)c2c3c(c(=O)oc2c1)CCC3` (centres undefined), for which the melting point was 133 to 135 °C.
In the case of `O=C(Cc1ccc2ccn(C3CCN(CCc4ccc(F)cc4)CC3)c2c1)NCC1OCCO1`, the melting point fell in the range of 118 to 119 °C.
